Entries after “also recorded” stand apart in the source; their conditions may differ. Like-named read-outs stand apart in the source and are kept apart here.

This note sets out measurements from publication PMC12587786, “In vitro α-glucosidase inhibition, molecular dynamics and docking study of phenyl carbamoyl methoxy thiosemicarbazone derivatives as potential anti-diabetic agents” (Journal of Enzyme Inhibition and Medicinal Chemistry, 2025).

The target in data set [1] is T1, α-glucosidase (from Saccharomyces cerevisiae EC 3.2.1.20) (Saccharomyces cerevisiae, UniProt P53341).
T1 construct: purchased Sigma
The experiment in a line: biochemical. The protocol:
The method described by Azizian et al. with some modifications was used to assess αglucosidase inhibitory activity of novel derivatives of phenyl carbamoyl methoxy thiosemicarbazone. The enzyme solution was prepared of αglucosidase (1 U/mL) in a […] phosphate buffer (pH: 6.8). The final volume of assay solution in the 96-well plate was 200 µl, which was prepared in the following order: 20 µl of the enzyme solution was used to obtain a final enzyme activity of […] per well. 20 µl of various concentrations of novel inhibitors (1000, 500, 250, 125, 62.5, 31.25, and 15.62 µM) and potassium phosphate buffer (135 µl, pH = 6.8). The 96-well plate was incubated for 10 min at 37 °C and pNPG as substrate (25 µl, 4 mM) was added to each well of the plate and was incubated again for 30 min at 37 °C. Finally, absorbance was measured at 405 nm using a spectrophotometer (BioTek ELx808, USA). […] The IC50 values for the tested inhibitors were calculated using Microsoft Excel 2016 software and non-linear regression analysis.

Data set [2] is described as follows: MTT cytotoxicity assay on A549 cells. The data set is classed as cell-based. To be noted: human, A549 cells (non-small cell lung carcinoma cell line), 24 h, MTT, read-out: cell viability rate; for viability at 24 h, 12.5 µM: A549, 12.5 µM; for viability at 24 h, 25 µM: A549, 25 µM; for viability at 24 h, 50 µM: A549, 50 µM; for viability at 24 h, 100 µM: A549, 100 µM. The protocol: (§1) To evaluate the cytotoxic effects of novel derivatives of phenyl carbamoyl methoxy thiosemicarbazone, an MTT assay was conducted using the non-small cell lung carcinoma cell line A549 and the MDA-MB-453 human breast cancer cell line. Both cell lines were obtained from the Pasteur Institute in Iran, and the assay was performed following the method of Jelena et al.[15], with some minor modifications.
(§2) In short, 100 µl of A549 cells (1 × 10^5) cultured in DMEM (Dulbecco’s modified Eagle’s medium) enriched with 10% foetal bovine serum (FBS) and 100 U/mL penicillin. […] streptomycin were added to each well in a 96-well plate, and they were incubated at 37 °C and 5% CO2 for 24 h. Also, 100 µl of MDA-MB-453 cells (1 × 10^5) cultured in RPMI enriched with 10% FBS and 100 U/mL penicillin and […] streptomycin were added to each well in a 96-well plate and were incubated at 37 °C and 5% CO2 for 24 h. Subsequently, the medium in both cell lines was replaced with different concentrations (12.5, 25, 50, and 100 µM) of two derivatives of 7e and 7 g, and plates were incubated at 37 °C and 5% CO2 for 24 h. After that, 10 µl of MTT (3–4, 5 dimethyl thiazol- 2 yl)-2, 5- diphenyl tetrazolium bromide) (Sigma USA) dye ([…] in PBS) was added to each well and incubated for 4 h at 37 °C. After 4 h, the solution was removed from the cells, and 100 µl of DMSO (dimethyl sulfoxide) was added to the wells. The optical density of each well was measured at 570 nm using an ELISA reader (BioTek ELx808, USA). The wells containing more cells have a higher optical density (OD) than those with fewer cells. Therefore, the wells with more cells can be identified using the following equation and compared with the control sample. Toxicity%=1−mean OD of sample/mean OD of control∗100 viability%=100−Toxicity %
(§3) PBS buffer and 1% Triton X-100 were negative and positive controls, respectively. All tests were conducted in triplicate.

Data set [3] is described as follows: MTT cytotoxicity assay on MDA-MB-453 cells. It counts as cell-based, human. To be noted: human, MDA-MB-453 cells (breast cancer cell line), 24 h, MTT, read-out: cell survival rate / cell viability; for viability at 24 h, 12.5 µM: MDA-MB-453, 12.5 µM; for viability at 24 h, 25 µM: MDA-MB-453, 25 µM; for viability at 24 h, 50 µM: MDA-MB-453, 50 µM; for viability at 24 h, 100 µM: MDA-MB-453, 100 µM. The procedure: as §1, §2, §3

Another data set concerns the target T2, α-glucosidase (Saccharomyces cerevisiae, UniProt P53341).
T2 construct: purchased Sigma
In words: Kinetic study of α-glucosidase inhibition (Lineweaver-Burk and secondary plots). It counts as biochemical. The protocol: Kinetic studies were conducted to determine the inhibition mechanism of the strongest novel inhibitor with the lowest IC50. […] The experimental inhibitor constant[42] was made using secondary plots.
This was achieved using Lineweaver–Burk plots to determine the type of inhibition mechanism and the Km value. […] This mode of inhibition is particularly advantageous for antidiabetic therapy, as it facilitates glucose-dependent modulation of enzyme activity. […] These attributes highlight the promise of 7e as a therapeutic agent for managing postprandial glucose levels in individuals with type 2 DM.

Data set [4] has as its system non-small cell lung carcinoma cell line A549. The experiment in a line: MTT cytotoxicity assay on A549 cells. The data set is classed as cell-based. As to conditions: A549. The procedure: as §1, §2, §3
Data set [5] concerns MDA-MB-453 human breast cancer cell line. In words: MTT cytotoxicity assay on MDA-MB-453 cells. The data set is classed as cell-based. To be noted: MDA-MB-453. The protocol: as §1, §2, §3
The mark [6] stands for this setting: pNPG substrate, pH 6.8, 37 °C, mean ± SD, n = 3, read-out: IC50 (µM) ± SD, α-glucosidase inhibitory activity.

T2 sequence (P53341 whole entry): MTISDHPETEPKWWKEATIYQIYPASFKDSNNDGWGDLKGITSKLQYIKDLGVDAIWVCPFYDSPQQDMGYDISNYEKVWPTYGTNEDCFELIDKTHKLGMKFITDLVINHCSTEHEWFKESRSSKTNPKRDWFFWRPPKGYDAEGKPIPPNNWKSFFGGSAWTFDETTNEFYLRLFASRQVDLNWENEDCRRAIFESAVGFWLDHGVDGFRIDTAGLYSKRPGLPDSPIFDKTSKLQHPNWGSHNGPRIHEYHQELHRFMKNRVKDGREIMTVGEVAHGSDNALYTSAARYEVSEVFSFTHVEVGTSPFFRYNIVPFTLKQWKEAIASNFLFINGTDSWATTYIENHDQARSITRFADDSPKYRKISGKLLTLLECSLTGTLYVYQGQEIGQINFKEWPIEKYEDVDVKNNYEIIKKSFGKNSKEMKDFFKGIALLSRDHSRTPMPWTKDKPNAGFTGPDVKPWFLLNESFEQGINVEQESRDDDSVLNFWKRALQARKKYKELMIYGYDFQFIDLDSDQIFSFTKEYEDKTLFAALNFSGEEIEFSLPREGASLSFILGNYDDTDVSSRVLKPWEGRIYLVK
T1 sequence (P53341 whole entry): as above

As to “2-{4-[(Z)-[(carbamothioylamino)imino]methyl]-2-methoxyphenoxy}-N-(4-methylphenyl) acetamide [Compound 7i]”, in data set [1] (setting [6]), the IC50 came out at 125.9 ± 0.016 µM.
Turning to `COc1cc(/C=N\NC(N)=S)ccc1OCC(=O)Nc1ccccc1Cl` [7 g, 2-{4-[(Z)-[(carbamothioylamino)imino]methyl]-2-methoxyphenoxy}-N-(2-chlorophenyl) acetamid], the midpoint of inhibition in data set [1], the IC50, lay at 62.2 ± 0.411 µM. Besides, in data set [2], the viability at 24 h, 12.5 µM came to 96.2%; the viability at 24 h, 25 µM is 72.4%; the viability at 24 h, 50 µM came to 57.3%; the viability at 24 h, 100 µM worked out at 27.7%. In data set [3], the viability at 24 h, 12.5 µM was found to be 89.6%; the viability at 24 h, 25 µM is 66.7%; the viability at 24 h, 50 µM is 50.6%; the viability at 24 h, 100 µM was 41%.
`COc1cc(/C=N\NC(N)=S)ccc1OCC(=O)Nc1ccccc1` [Compound 7a, 2-{4-[(Z)-[(carbamothioylamino)imino]methyl]-2-methoxyphenoxy}-N-phenylacetamide]: in data set [1], it took 257 ± 0.491 µM to reach half-maximal inhibition (IC50).
As to `COc1cc(/C=N\NC(N)=S)ccc1OCC(=O)Nc1ccc(C)cc1` [Compound 7b, 2-{4-[(Z)-[(carbamothioylamino)imino]methyl]-2-methoxyphenoxy}-N-(4-methylphenyl) acetamide], the IC50 in data set [1] (setting [6]) came to 151.18 ± 0.02 µM.
On the same count and under the same terms, next, `CCc1ccc(NC(=O)COc2ccc(/C=N\NC(N)=S)cc2OC)cc1` [Compound 7c, 2-{4-[(Z)-[(carbamothioylamino)imino]methyl]-2-methoxyphenoxy}-N-(4-ethylphenyl) acetamide]: 95.99 ± 0.273 µM.
As for `COc1cc(C=NNC(N)=S)ccc1OCC(=O)NCc1ccccc1` [Compound 7d], half-maximal inhibition in data set [1] (IC50) required 216.42 ± 0.025 µM.
In data set [1], `COc1cc(/C=N\NC(N)=S)ccc1OCC(=O)Nc1cccc(C)c1` [Compound 7e, 2-{4-[(Z)-[(carbamothioylamino)imino]methyl]-2-methoxyphenoxy}-N-(3-methylphenyl) acetamide] showed an IC50 of 23.95 ± 0.038 µM. Moreover, the inhibitory constant (Ki) on α-glucosidase was determined as 34.8 µM. Moreover, the “Type of inhibition mechanism” value on α-glucosidase (Lineweaver–Burk plots) is “competitive inhibitor”. The “Vmax with increasing inhibitor concentration” value at α-glucosidase (inhibitor 0-250 µM) is reported as “remained unchanged”. Besides, in data set [2], the viability at 24 h, 12.5 µM came to 95.5%; the viability at 24 h, 25 µM turned out to be 84.3%; the viability at 24 h, 50 µM is 75.2%; the viability at 24 h, 100 µM turned out to be 63.7%. The “cytotoxic activity (in words)” value in data set [4] is “did not possess important cytotoxic activity; also recorded: low cytotoxicity”. Further, in data set [3], the viability at 24 h, 12.5 µM turned out to be 97.4%; the viability at 24 h, 25 µM is 74.7%; the viability at 24 h, 50 µM was 66.3%; the viability at 24 h, 100 µM was found to be 57.2%. Further, the “cytotoxic activity (in words)” value in data set [5] is recorded as “did not possess important cytotoxic activity; also recorded: low cytotoxicity”.
The compound `COc1cc(/C=N\NC(N)=S)ccc1OCC(=O)Nc1cccc([N+](=O)[O-])c1` [Compound 7f, 2-{4-[(Z)-[(carbamothioylamino)imino]methyl]-2-methoxyphenoxy}-N-(3-nitrophenyl) acetamide] came in with an IC50 in data set [1] of 328.17 ± 0.083 µM.
For `COc1cc(/C=N\NC(N)=S)ccc1OCC(=O)Nc1ccc(Br)cc1` [Compound 7h, N-(4-bromophenyl)-2-{4-[(Z)-[(carbamothioylamino)imino]methyl]-2-methoxyphenoxy} acetamide], the IC50 in data set [1] (setting [6]) came to 573.67 ± 0.043 µM.
The compound `COc1cc(/C=N\NC(N)=S)ccc1OCC(=O)Nc1cccc(C)c1C` [Compound 7j, 2-{4-[(Z)-[(carbamothioylamino)imino]methyl]-2-methoxyphenoxy}-N-(2,3-dimethylphenyl) acetamide] showed an IC50 in data set [1] of 103.91 ± 0.028 µM.
The same measure, in the same setting: the figure for `COc1cc(/C=N\NC(N)=S)ccc1OCC(=O)Nc1ccc(Cl)cc1` [Compound 7k, 2-{4-[(Z)-[(carbamothioylamino)imino]methyl]-2-methoxyphenoxy}-N-(4-chlorophenyl) acetamide] is 442.41 ± 0.009 µM.
Still for that read-out and setting: the figure for `COc1cc(/C=N\NC(N)=S)ccc1OCC(=O)Nc1ccc(C)cc1C` [Compound 7l, 2-{4-[(Z)-[(carbamothioylamino)imino]methyl]-2-methoxyphenoxy}-N-(2,4-dimethylphenyl) acetamide] is 122.72 ± 0.098 µM.
In the case of `COc1ccc(NC(=O)COc2ccc(/C=N\NC(N)=S)cc2OC)cc1` [Compound 7m, 2-{4-[(Z)-[(carbamothioylamino)imino]methyl]-2-methoxyphenoxy}-N-(4-methoxyphenyl) acetamide], the IC50 in data set [1] (setting [6]) came to 436.5 ± 0.062 µM.
`COc1cc(/C=N\NC(N)=S)ccc1OCC(=O)Nc1ccccc1F` [Compound 7n, 2-{4-[(Z)-[(carbamothioylamino)imino]methyl]-2-methoxyphenoxy}-N-(2-fluorophenyl) acetamide] registered an IC50 in data set [1] of 95.65 ± 0.056 µM.
